pIC50, pKi: −log10 of the molar value.
Key:
OX2 [1] = molecular target: T1, OX2 (Homo sapiens, UniProt O43614); assay: Antagonism PLAP reporter assay, HEK-293 cells expressing human OX2; assay type: cell-based; design: expressed in transfected cells; host or cells: HEK-293 cell line, expression vector pBabeCLIH; conditions: HEK-293, 1 nM human OX-A; IC50 converted to Ki by Cheng-Prusoff equation
T1 sequence (O43614 1-444): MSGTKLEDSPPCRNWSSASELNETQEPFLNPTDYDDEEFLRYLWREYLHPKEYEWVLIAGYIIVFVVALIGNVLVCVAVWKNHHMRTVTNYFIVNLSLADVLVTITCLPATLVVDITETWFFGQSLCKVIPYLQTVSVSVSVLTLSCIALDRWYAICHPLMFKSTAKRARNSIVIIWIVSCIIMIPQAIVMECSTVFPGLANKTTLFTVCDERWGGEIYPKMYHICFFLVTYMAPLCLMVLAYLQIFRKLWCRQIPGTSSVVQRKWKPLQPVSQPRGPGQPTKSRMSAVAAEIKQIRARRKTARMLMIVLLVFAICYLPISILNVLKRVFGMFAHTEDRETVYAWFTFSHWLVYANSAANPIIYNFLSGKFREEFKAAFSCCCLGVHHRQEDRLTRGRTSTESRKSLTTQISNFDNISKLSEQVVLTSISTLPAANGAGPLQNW
Procedure: (§1) The antagonistic function of the compound of the present invention to prevent the activation of OX2 and OX1 by orexin-A (OX-A), which is a natural peptide agonist, was measured using a cell-based reporter assay. A HEK-293 cell line expressing genetically recombinant human OX2 (accession No. NM_001526.3) or a HEK-293 cell line expressing genetically recombinant human OX1 (accession No. NM_001525.2), which had pBabeCLIH as expression vector, was used. The cells were plated at a density of 10,000 cells/well onto a non-coated 96-well plate in Dulbecco's modified Eagle medium (Sigma Cat No. D6046: 10% v/v heat-inactivated fetal bovine serum was contained). The cells were cultured at 37° C. overnight, so that they could adhere to the plate. On the following day, cells were incubated with a compound of the present invention dissolved in Dulbecco's modified Eagle medium (Sigma Cat No. A8806: 0.1% w/v bovine serum albumin was contained), and added to the cell plate to reach a final concentration of 0.1% dimethyl sulfoxide.
(§2) The thus obtained mixture was incubated at room temperature for 1 hour. Thereafter, human OX-A and forskolin were dissolved in the same medium as described above, which contained fetal bovine serum albumin, and the medium was then added to the cells, resulting in a final concentration of 300 nM forskolin. Subsequently, the cells were cultured at 37° C. for approximately 18 to 24 hours. During the culture, as a result of activation of the orexin receptor and subsequent dose-dependent increase in intracellular calcium concentration, a reporter enzyme, placental alkaline phosphatase (PLAP), was expressed under the control of a CRE x4+VIP promoter in a pBabeCLcre4vPdNN vector and secreted into the culture medium supernatant. On the following day, reporter enzyme activity was detected by mixing 5 ul of the culture medium supernatant with 20 ul of detection buffer (containing 1.34 g/L sodium bicarbonate, 1.27 g/L sodium carbonate and 0.2 g/L magnesium sulfate heptahydrate in water) and 25 ul of Lumi-Phos530 reagent (Wako Pure Chemical Industries Ltd.), followed by incubating the obtained mixture light-protected at room temperature for 2 hours, before performing luminescence measurement (ARVO Reader, PerkinElmer). The Kd value of human OX-A with respect to each receptor was measured by titration from 0 to 300 nM. Then, the IC50 value of the compound of the present invention with respect to the activity of 1 nM human OX-A was converted into a Ki value (nM) using the Cheng-Prusoff equation.

OX1 [2] = molecular target: T2, OX1 (Homo sapiens, UniProt O43613); assay: Orexin-receptor binding ability, [125I]-OX-A, CHO cell membranes expressing OX1; design: expressed in transfected cells; host or cells: CHO cells (membrane preparation); conditions: membranes of recombinant CHO cells, 0.2 nM [125I]-OX-A tracer; read-out: OX1 (IC50)
T2 sequence (O43613 1-425): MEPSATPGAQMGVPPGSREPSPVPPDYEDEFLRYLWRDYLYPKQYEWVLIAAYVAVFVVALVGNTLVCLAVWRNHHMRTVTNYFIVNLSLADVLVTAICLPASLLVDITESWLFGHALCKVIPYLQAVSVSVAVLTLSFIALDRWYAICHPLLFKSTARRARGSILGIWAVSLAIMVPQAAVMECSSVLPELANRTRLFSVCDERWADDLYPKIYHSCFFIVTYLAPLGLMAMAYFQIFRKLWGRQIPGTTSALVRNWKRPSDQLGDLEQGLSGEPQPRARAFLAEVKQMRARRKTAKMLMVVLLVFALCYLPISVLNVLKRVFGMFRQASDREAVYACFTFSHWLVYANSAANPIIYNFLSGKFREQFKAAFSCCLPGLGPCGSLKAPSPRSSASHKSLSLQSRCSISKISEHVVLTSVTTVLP
Procedure: (§3) The assay was carried out using a 96-well Wheat Germ Agglutinin Flash Plate (PerkinElmer). The volume in a single assay well was 100 ul, and the composition of the reaction solution was as follows:
(§4) 25 mM HEPES (pH 7.5), 1 mM CaCl2, 4.5 mM MgCl2, 0.5% BSA (bovine serum albumin), 0.1% sodium azide, 0.05% Tween-20, and 0.2% DMSO.
Cell membranes were prepared from recombinant CHO cells that expressed OX2 or OX1. The cell membranes were used in an amount of 5 μg protein/assay. […] Finally, the radioactivity of each well was measured using a scintillation counter (TopCount, PerkinElmer). The obtained results are shown in terms of IC50 values (nM) in the following table.

OX2 [3] = molecular target: T1, OX2; assay: Orexin-receptor binding ability, [125I]-OX-A, CHO cell membranes expressing OX2; design: expressed in transfected cells; host or cells: CHO cells (membrane preparation); conditions: membranes of recombinant CHO cells, 0.2 nM [125I]-OX-A tracer; read-out: OX2 (IC50)
Procedure: as §3, §4
Cell membranes were prepared from recombinant CHO cells that expressed OX2 or OX1. The cell membranes were used in an amount of 5 μg protein/assay. Test compound in various concentrations, and 0.2 nM [^125I]-OX-A as tracer were added to the cell membranes, and then allowed to react at room temperature for 30 minutes. After completion of the reaction, the reaction solution as a whole was discarded, and the wells were then washed once with 200 ul of wash buffer (25 mM HEPES (pH 7.5), 1 mM CaCl2, 5 mM MgCl2, 0.5% BSA, 0.1% sodium azide, 0.05% Tween-20, and 525 mM sodium chloride). Finally, the radioactivity of each well was measured using a scintillation counter (TopCount, PerkinElmer). The obtained results are shown in terms of IC50 values (nM) in the following table.

OX1 [4] = molecular target: T2, OX1; assay: Antagonism PLAP reporter assay, HEK-293 cells expressing human OX1; assay type: cell-based; design: expressed in transfected cells; host or cells: HEK-293 cell line, expression vector pBabeCLIH; conditions: HEK-293, 1 nM human OX-A; IC50 converted to Ki by Cheng-Prusoff equation
Procedure: as §1, §2

SMILES | pKi (OX2 [1]) | pIC50 (OX1 [2]) | pIC50 (OX2 [3]) | pKi (OX1 [4])
CCc1nc(Cl)cn1CCC1(c2ccccc2)CC1C(=O)Nc1ccc(F)cn1 (stereo not drawn) [Example 113] | 7.20 | 6.03 | 7.31 | < 6.33
COc1ccc(OCC2(c3ccccc3)CC2C(=O)Nc2nc(C)cs2)cc1OC (stereo not drawn) [Example 23, N-(4-methyl-1,3-thiazol-2-yl)-2-[(3,4-dimethoxyphenyl)oxymethyl]-2-phenylcyclopropanecarboxamide] | 7.80 | 6.07 | 7.85 | 6.20
Cc1cc(NC(=O)[C@@H]2C[C@@]2(CCn2nc(C(F)F)nc2C)c2ccccc2)ncc1F [Example 108, (1R,2S)-2-[2-(3-difluoromethyl-5-methyl-1H-1,2,4-triazol-1-yl)ethyl]-N-(5-fluoro-4-methylpyridin-2-yl)-2-phenylcyclopropanecarboxamide] | – | 7.00 | 8.22 | –
Cc1nn(C)cc1OCC1(c2ccccc2)CC1C(=O)Nc1ccc(Cl)cn1 (stereo not drawn) [Example 83] | – | 6.17 | 7.82 | –
Cc1nn(C)c(=O)cc1OC[C@@]1(c2ccccc2)C[C@H]1C(=O)Nc1ccc(Cl)cn1 [Example 95] | – | 5.80 | 7.23 | –
Cc1nc(C(F)F)nn1CC[C@@]1(c2ccccc2)C[C@H]1C(=O)Nc1ccc(F)cn1 [Example 109] | – | 5.88 | 7.15 | –
Cc1cnc(OC[C@@]2(c3ccccc3)C[C@H]2C(=O)Nc2ccc(Cl)cn2)c(C)n1 [Example 67] | – | 7.48 | 8.15 | –
Cc1csc(NC(=O)[C@@H]2C[C@@]2(CCn2nc(C(F)(F)F)nc2C)c2ccccc2)n1 [Example 124] | – | 5.65 | 7.26 | –
CCn1cc(OC[C@@]2(c3cccc(F)c3)C[C@H]2C(=O)Nc2ccnc(F)c2)c(C)n1 [Example 91] | – | < 6.70 | 7.03 | –
Cc1nc(C(F)F)nn1CC[C@@]1(c2ccccc2)C[C@H]1C(=O)Nc1ccc(F)cc1 [Example 111] | – | 6.18 | 7.39 | –
CCn1cc(OC[C@@]2(c3ccccc3)C[C@H]2C(=O)Nc2ccc(F)cc2)c(C)n1 [Example 71] | – | 5.88 | 7.35 | –
Cc1nc(C(F)F)nn1CC[C@@]1(c2ccccc2)C[C@H]1C(=O)Nc1ccc(Cl)cn1 [Example 110] | – | 6.71 | 7.44 | –
CCn1nc(C)c(OC[C@@]2(c3ccccc3)C[C@H]2C(=O)Nc2ccc(F)cc2)cc1=O [Example 98] | – | 6.88 | 7.26 | –
CCn1cc(OC[C@@]2(c3cccc(F)c3)C[C@H]2C(=O)Nc2ccc(F)cn2)c(C)n1 [Example 87] | – | 6.87 | 7.68 | –
CCn1cc(OC[C@@]2(c3cccc(F)c3)C[C@H]2C(=O)Nc2ccc(C#N)cn2)c(C)n1 [Example 90] | – | 7.89 | 8.10 | –
Cc1cc(NC(=O)[C@@H]2C[C@@]2(COc2cc(=O)n(C)nc2C)c2ccccc2)ncc1F [Example 94] | – | 6.11 | 7.41 | –
Cc1nn(C)c(=O)cc1OC[C@@]1(c2ccccc2)C[C@H]1C(=O)Nc1ccc(F)cc1 [Example 93, (1R,2S)-2-[(1,3-dimethyl-6-oxo-1,6-dihydropyridazin-4-yl)oxymethyl]-N-(4-fluorophenyl)-2-phenylcyclopropanecarboxamide] | – | 6.39 | 7.57 | –
CCn1cc(OC[C@@]2(c3ccccc3)C[C@H]2C(=O)Nc2ccccn2)c(C)n1 [Example 69] | – | 5.67 | 7.16 | –
Cc1cnc(OC[C@@]2(c3ccccc3)C[C@H]2C(=O)Nc2ccc(F)cn2)c(C)n1 [Example 65] | – | 7.24 | 7.59 | –
CCn1cc(CCC2(c3ccccc3)CC2C(=O)Nc2ccc(Cl)cn2)cn1 (stereo not drawn) [Example 102] | – | 6.44 | 7.66 | –
COc1cn(CCC2(c3ccccc3)CC2C(=O)Nc2ccc(Cl)cn2)ccc1=O (stereo not drawn) [Example 117] | – | 6.34 | 7.34 | –
Cc1nc(C2CC2)nn1CC[C@@]1(c2ccccc2)C[C@H]1C(=O)Nc1ccc(C#N)cn1 [Example 127] | – | 6.58 | 7.64 | –
CCn1cc(OC[C@@]2(c3cccc(F)c3)C[C@H]2C(=O)Nc2ccccn2)c(C)n1 [Example 85] | – | 7.23 | 8.10 | –
CCn1cc(OC[C@@]2(c3cccc(F)c3)C[C@H]2C(=O)Nc2cc(OC)c(F)cn2)c(C)n1 [Example 89] | – | < 6.70 | 7.03 | –
COc1cncc(NC(=O)[C@@H]2C[C@@]2(COc2cc(=O)n(C)nc2C)c2ccccc2)c1 [Example 92, (1R,2S)-2-[(1,3-dimethyl-6-oxo-1,6-dihydropyridazin-4-yl)oxymethyl]-N-(5-methoxypyridin-3-yl)-2-phenylcyclopropanecarboxamide] | – | 5.87 | 8.30 | –
CCn1cc(OC[C@@]2(c3cccc(F)c3)C[C@H]2C(=O)Nc2ccc(F)cn2)c(C)n1 [Example 86] | – | 7.82 | 8.30 | –
Cc1nc(C(F)F)nn1CC[C@@]1(c2ccccc2)C[C@H]1C(=O)Nc1ccc(C#N)cn1 [Example 112] | – | – | 7.48 | –
Cc1cnc(OC[C@@]2(c3ccccc3)C[C@H]2C(=O)Nc2ccc(C#N)cn2)c(C)n1 [Example 66] | – | 7.13 | 7.68 | –
COc1nc(C)n(CCC2(c3ccccc3)CC2C(=O)Nc2ccc(Cl)cn2)n1 (stereo not drawn) [Example 116] | – | < 5.70 | 7.05 | –
CCn1cc(OC[C@@]2(c3cccc(F)c3)C[C@H]2C(=O)Nc2ccc(F)cc2)c(C)n1 [Example 88] | – | 7.08 | 7.92 | –

Source: patent publication US20120165339A1, “CYCLOPROPANE DERIVATIVES” (EISAI R&D MANAGEMENT CO., LTD., priority 2010, published 2012)
